Measurements published in ChEMBL document CHEMBL1135890, “Structure-activity relationships of 2'-fluoro-2',3'-unsaturated D-nucleosides as anti-HIV-1 agents” (J Med Chem, 2002).

Biological target: Adenosine deaminase (Bos taurus) (UniProt P56658)
Experiment: Michaelis constant was determined against mammalian Adenosine deaminase; NS = not a substrate of adenosine deaminase

Chain of Adenosine deaminase (Bos taurus) (P56658 whole entry, looked up): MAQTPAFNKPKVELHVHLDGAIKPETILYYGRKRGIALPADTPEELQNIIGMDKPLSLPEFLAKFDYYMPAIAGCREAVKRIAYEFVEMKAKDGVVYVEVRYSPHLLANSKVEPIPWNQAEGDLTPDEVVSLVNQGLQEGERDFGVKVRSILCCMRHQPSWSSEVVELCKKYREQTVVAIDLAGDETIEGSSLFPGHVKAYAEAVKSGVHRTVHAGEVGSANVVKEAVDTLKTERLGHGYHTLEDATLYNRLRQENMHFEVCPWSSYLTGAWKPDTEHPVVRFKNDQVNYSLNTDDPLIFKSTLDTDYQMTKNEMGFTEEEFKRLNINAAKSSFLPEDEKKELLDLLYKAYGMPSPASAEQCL

Nc1ncnc2c1ncn2[C@@H]1O[C@H](CO)C=C1F
NS: Not a substrate
